Source: US9624208B2, “Benzoxazolinone compounds with selective activity in voltage-gated sodium channels” (Merck Sharp & Dohme Corp., priority 2012, dated 2017)

What was measured:
[1] = molecular target: T1, human Nav1.5 (Homo sapiens, UniProt Q14524); test: PatchXpress sodium current measurement, inactivated state block, Nav1.5; format: cell-based; settings: determined by PatchXpress measurement, HEK 293 cells
T1 construct: expressed in transfected cells
Experimental: (§1) Cell Based Assays for Nav 1.7 and Nav 1.5 Activity
(§2) Compounds were tested on human Nav1.7 and Nav1.5 channels stably expressed in HEK 293 cells.
(§3) Sodium Current Measurements on the PatchXpress 7000:
(§4) To measure inactivated state block of sodium channels, test compounds were characterized in an automated PatchXpress® assay (Molecular Devices) using a double-pulse protocol on human Nav1.7 and Nav1.5 channels stably expressed in HEK 293 cells. Cells were held at a potential 20 mV negative to the potential at which ˜50% of the channels are inactivated. A 8000 ms pre-pulse 7 mV positive to the potential at which ˜50% of the channels are inactivated was given followed by a hyperpolarizing 2 ms pulse to −120 mV and a 20 ms test pulse to −20 mV. The protocol was applied to cells in the absence, presence of compound and after washout. The temperature of PatchXpress® instruments was maintained at 22° C. The following recording solutions were used. Internal solution (mM): 30 CsCl, 5 HEPES, 10 EGTA, 120 CsF, 5 NaF, 2 MgCl2, pH 7.3 with CsOH. External solution (mM): 120 NMDG, 40 NaCl, 1 KCl, 0.5 MgCl2, 5 HEPES, 2.7 CaCl2, pH 7.5 with NMDG-OH. Estimated IC50 values were calculated based on at least two compound concentrations tested. For all electrophysiology experiments, offline analysis was used to correct for current rundown and to determine percent inhibition as a function of drug concentration. IC50 values were determined by fitting to the Hill equation.

[2] = molecular target: T2, human Nav1.7 (Homo sapiens, UniProt Q15858); test: PatchXpress sodium current measurement, inactivated state block, Nav1.7; format: cell-based; settings: channels stably expressed in HEK 293 cells, double-pulse protocol, 22° C., read-out: potency for the Nav 1.7 sodium ion channel (1.7=)
T2 construct: expressed in transfected cells
T2 sequence (Q15858 whole entry): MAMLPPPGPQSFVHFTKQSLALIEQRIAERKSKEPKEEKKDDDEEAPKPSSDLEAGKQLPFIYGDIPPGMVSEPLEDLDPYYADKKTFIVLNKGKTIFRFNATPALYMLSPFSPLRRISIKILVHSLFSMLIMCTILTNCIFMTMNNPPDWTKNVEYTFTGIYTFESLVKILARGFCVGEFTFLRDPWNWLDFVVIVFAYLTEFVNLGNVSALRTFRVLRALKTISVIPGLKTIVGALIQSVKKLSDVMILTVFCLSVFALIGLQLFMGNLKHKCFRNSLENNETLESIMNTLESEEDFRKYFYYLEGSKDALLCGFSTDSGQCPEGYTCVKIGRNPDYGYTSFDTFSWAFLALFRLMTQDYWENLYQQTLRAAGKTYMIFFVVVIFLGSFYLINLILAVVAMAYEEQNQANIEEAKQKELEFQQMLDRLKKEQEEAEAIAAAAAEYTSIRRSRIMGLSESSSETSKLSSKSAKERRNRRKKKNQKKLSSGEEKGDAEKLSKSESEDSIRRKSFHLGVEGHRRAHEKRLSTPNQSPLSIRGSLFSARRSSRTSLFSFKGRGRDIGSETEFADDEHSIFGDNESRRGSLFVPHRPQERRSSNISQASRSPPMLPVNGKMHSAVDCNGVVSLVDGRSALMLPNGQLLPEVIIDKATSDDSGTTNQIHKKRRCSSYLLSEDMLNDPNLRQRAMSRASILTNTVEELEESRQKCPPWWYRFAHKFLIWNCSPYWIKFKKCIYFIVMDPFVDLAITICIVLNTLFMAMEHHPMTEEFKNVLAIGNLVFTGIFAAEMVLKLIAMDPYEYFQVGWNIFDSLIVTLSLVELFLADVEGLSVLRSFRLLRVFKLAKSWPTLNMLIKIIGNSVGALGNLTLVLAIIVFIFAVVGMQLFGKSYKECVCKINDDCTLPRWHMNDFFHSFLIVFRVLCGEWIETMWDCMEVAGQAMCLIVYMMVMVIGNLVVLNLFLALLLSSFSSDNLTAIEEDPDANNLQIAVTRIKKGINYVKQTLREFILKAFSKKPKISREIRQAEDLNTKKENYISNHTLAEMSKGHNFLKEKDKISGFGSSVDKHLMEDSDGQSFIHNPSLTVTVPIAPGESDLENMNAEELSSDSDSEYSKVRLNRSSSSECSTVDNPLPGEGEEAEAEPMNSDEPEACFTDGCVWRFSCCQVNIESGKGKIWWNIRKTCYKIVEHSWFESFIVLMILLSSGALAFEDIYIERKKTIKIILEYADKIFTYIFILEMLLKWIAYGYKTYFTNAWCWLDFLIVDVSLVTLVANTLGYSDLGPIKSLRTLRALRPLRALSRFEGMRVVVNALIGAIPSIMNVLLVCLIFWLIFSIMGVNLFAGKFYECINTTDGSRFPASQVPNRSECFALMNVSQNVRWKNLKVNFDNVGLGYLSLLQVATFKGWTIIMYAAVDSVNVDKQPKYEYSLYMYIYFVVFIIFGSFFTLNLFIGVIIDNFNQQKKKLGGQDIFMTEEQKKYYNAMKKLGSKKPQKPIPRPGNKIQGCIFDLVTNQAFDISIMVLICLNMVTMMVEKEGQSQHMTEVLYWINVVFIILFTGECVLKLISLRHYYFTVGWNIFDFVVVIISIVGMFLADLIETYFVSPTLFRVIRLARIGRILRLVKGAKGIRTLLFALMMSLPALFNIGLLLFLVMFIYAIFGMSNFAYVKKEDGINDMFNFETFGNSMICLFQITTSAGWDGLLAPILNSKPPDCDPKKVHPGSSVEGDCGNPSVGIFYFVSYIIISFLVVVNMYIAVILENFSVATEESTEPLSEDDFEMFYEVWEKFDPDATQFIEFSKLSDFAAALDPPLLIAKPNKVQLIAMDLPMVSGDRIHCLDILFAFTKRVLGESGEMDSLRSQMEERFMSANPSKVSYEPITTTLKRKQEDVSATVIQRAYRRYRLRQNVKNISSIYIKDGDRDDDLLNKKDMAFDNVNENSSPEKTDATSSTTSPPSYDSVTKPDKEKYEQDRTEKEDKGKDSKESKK
Experimental: as §1, §2, §3, §4

T1 sequence (Q14524 whole entry): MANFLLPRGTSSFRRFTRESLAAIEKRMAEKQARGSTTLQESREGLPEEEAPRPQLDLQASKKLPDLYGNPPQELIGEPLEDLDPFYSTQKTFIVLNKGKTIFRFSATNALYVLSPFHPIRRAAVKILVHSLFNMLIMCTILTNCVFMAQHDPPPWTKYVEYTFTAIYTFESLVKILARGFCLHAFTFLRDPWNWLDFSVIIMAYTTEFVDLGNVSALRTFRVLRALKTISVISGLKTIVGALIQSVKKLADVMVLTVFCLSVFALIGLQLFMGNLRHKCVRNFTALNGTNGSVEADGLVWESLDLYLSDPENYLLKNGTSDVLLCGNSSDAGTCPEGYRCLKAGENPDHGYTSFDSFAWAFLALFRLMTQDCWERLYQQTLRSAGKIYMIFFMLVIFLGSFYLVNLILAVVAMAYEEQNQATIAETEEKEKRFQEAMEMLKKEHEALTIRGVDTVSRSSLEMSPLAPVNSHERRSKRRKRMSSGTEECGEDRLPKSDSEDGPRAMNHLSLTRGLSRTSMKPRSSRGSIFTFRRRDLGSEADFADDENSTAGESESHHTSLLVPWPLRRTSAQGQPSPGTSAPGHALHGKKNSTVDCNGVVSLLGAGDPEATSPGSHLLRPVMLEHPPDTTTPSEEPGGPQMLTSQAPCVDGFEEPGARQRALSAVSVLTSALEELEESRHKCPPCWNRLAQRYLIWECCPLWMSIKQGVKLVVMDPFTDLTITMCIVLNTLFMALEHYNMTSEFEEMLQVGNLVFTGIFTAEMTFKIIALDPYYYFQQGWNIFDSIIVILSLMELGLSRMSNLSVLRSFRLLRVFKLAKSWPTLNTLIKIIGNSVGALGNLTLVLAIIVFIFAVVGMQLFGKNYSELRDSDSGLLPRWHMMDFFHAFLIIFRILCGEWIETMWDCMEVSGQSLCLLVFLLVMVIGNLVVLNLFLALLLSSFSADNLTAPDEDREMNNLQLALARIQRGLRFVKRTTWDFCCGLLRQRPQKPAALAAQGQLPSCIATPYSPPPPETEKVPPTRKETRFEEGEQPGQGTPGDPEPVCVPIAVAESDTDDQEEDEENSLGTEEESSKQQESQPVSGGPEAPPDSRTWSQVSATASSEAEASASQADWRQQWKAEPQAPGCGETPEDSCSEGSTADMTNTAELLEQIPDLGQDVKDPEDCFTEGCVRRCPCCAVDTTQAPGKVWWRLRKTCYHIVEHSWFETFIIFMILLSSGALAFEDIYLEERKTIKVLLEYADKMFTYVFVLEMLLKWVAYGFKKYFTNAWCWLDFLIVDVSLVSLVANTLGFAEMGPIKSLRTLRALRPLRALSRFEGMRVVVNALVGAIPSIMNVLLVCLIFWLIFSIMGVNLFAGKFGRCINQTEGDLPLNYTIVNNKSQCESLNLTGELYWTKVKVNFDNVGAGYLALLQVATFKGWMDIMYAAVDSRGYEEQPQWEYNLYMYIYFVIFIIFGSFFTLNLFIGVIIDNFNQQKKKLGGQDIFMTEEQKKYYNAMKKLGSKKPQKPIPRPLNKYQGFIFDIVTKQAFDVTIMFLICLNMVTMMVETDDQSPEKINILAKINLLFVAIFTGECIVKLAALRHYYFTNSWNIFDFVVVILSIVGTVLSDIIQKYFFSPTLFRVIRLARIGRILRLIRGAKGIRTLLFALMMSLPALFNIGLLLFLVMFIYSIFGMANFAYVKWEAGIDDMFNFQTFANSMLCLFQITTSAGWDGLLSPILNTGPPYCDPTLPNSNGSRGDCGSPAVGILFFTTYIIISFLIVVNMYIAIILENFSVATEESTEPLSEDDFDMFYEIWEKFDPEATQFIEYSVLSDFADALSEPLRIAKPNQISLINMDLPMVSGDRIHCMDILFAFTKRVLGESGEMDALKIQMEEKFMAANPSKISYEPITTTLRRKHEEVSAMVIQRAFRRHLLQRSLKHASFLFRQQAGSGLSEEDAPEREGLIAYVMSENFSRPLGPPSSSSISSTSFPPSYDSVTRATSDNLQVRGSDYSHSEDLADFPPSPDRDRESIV

| SMILES | IC50 [2] [nM] | ratio of Nav 1.5:Nav 1.7 potency [1] |
| --- | --- | --- |
| C[C@H](c1ccccc1C#CCN1CCCC1)n1c(=O)oc2cc(S(=O)(=O)Nc3cccc(F)n3)c(F)cc21 [Ex8-2, 5-fluoro-N-(6-fluoropyridin-2-yl)-2-oxo-3-{(1R)-1-[2-(3-pyrrolidin-1-ylprop-1-yn-1-yl)phenyl]ethyl}-2,3-dihydro-1,3-benzoxazole-6-sulfonamide] | 434 | 23 |
| C[C@H](c1ccccc1C#C[C@H]1CCCC[C@H]1N)n1c(=O)oc2cc(S(=O)(=O)Nc3cccc(F)n3)c(F)cc21 [Ex8-3, 3-[(1R)-1-(2-{[(1R,2R)-2-aminocyclohexyl]ethynyl}phenyl)ethyl]-5-fluoro-N-(6-fluoropyridin-2-yl)-2-oxo-2,3-dihydro-1,3-benzoxazole-6-sulfonamide] | 14 | 2000 |
| C[C@H](c1ccccc1C#CC(N)CO)n1c(=O)oc2cc(S(=O)(=O)Nc3cccc(F)n3)c(F)cc21 (stereo partly drawn) [Ex8-4, 3-{(1R)-1-[2-(3-amino-4-hydroxybut-1-yn-1-yl)phenyl]ethyl}-5-fluoro-N-(6-fluoropyridin-2-yl)-2-oxo-2,3-dihydro-1,3-benzoxazole-6-sulfonamide] | 9 | 822 |
| C[C@H](c1ccccc1C#CC1(N)CCCCC1)n1c(=O)oc2cc(S(=O)(=O)Nc3cccc(F)n3)c(F)cc21 [Ex8-6, 3-[(1R)-1-{2-[(1-aminocyclohexyl)ethynyl]phenyl}ethyl]-5-fluoro-N-(6-fluoropyridin-2-yl)-2-oxo-2,3-dihydro-1,3-benzoxazole-6-sulfonamide] | 49 | 95 |
| C[C@H](c1ccccc1C#CCC(C)(C)N)n1c(=O)oc2cc(S(=O)(=O)Nc3cccc(F)n3)c(F)cc21 [Ex8-7, 3-{(1R)-1-[2-(4-amino-4-methylpent-1-yn-1-yl)phenyl]ethyl}-5-fluoro-N-(6-fluoropyridin-2-yl)-2-oxo-2,3-dihydro-1,3-benzoxazole-6-sulfonamide] | 108 | > 131 |
| C[C@H](c1ccccc1C#CCN1CCC(O)C1)n1c(=O)oc2cc(S(=O)(=O)Nc3cccc(F)n3)c(F)cc21 (stereo partly drawn) [Ex8-8, 5-fluoro-N-(6-fluoropyridin-2-yl)-3-[(1R)-1-{2-[3-(3-hydroxypyrrolidin-1-yl)prop-1-yn-1-yl]phenyl}ethyl]-2-oxo-2,3-dihydro-1,3-benzoxazole-6-sulfonamide] | 299 | 75 |
| C[C@H](c1ccccc1C#CCN(C)C)n1c(=O)oc2cc(S(=O)(=O)Nc3cccc(F)n3)c(F)cc21 [Ex8-9, 3-[(1R)-1-{2-[3-(dimethylamino)prop-1-yn-1-yl]phenyl}ethyl]-5-fluoro-N-(6-fluoropyridin-2-yl)-2-oxo-2,3-dihydro-1,3-benzoxazole-6-sulfonamide] | 273 | 99 |
| C[C@H](c1ccccc1C#CCN1CCC1)n1c(=O)oc2cc(S(=O)(=O)Nc3cccc(F)n3)c(F)cc21 [Ex8-10, 3-{(1R)-1-[2-(3-azetidin-1-ylprop-1-yn-1-yl)phenyl]ethyl}-5-fluoro-N-(6-fluoropyridin-2-yl)-2-oxo-2,3-dihydro-1,3-benzoxazole-6-sulfonamide] | 236 | 127 |
| C[C@H](c1ccccc1CN)n1c(=O)oc2cc(S(=O)(=O)Nc3cccc(F)n3)c(F)cc21 [Ex9-1, (R)-3-(1-(2-(aminomethyl)phenyl)ethyl)-5-fluoro-N-(6-fluoropyridin-2-yl)-2-oxo-2,3-dihydrobenzo[d]oxazole-6-sulfonamide] | 24 | 1525 |
| C[C@H](c1ccccc1CN(C)C)n1c(=O)oc2cc(S(=O)(=O)Nc3cccc(F)n3)c(F)cc21 [Ex9-2, 3-[(1R)-1-{2-[(dimethylamino)methyl]phenyl}ethyl]-5-fluoro-N-(6-fluoropyridin-2-yl)-2-oxo-2,3-dihydro-1,3-benzoxazole-6-sulfonamide] | 124 | 84 |
| C[C@H](c1ccccc1CN1CCCCC1)n1c(=O)oc2cc(S(=O)(=O)Nc3cccc(F)n3)c(F)cc21 [Ex9-3, 5-fluoro-N-(6-fluoropyridin-2-yl)-2-oxo-3-{(1R)-1-[2-(piperidin-1-ylmethyl)phenyl]ethyl}-2,3-dihydro-1,3-benzoxazole-6-sulfonamide] | 300 | 68 |
| C[C@H](c1ccccc1C1CNC1)n1c(=O)oc2cc(S(=O)(=O)Nc3cccc(F)n3)c(F)cc21 [Ex10-3, (R)-3-(1-(2-(Azetidin-3-yl)phenyl)ethyl)-5-fluoro-N-(6-fluoropyridin-2-yl)-2-oxo-2,3-dihydrobenzo[d]oxazole-6-sulfonamide] | 39 | 1306 |

The next lines start with results.

| IC50 [2] [nM] | SMILES | ratio of Nav 1.5:Nav 1.7 potency [1] |
| --- | --- | --- |
| 213 | C[C@H](c1ccccc1C1CN(S(C)(=O)=O)C1)n1c(=O)oc2cc(S(=O)(=O)Nc3cccc(F)n3)c(F)cc21 [Ex11-1] | 34 |
| 400 | C[C@H](c1ccccc1C1(O)CNC1)n1c(=O)oc2cc(S(=O)(=O)Nc3cccc(F)n3)c(F)cc21 [Ex12-4, (R)-5-Fluoro-N-(6-fluoropyridin-2-yl)-3-(1-(2-(3-hydroxyazetidin-3-yl)phenyl)ethyl)-2-oxo-2,3-dihydrobenzo[d]oxazole-6-sulfonamide] | 75 |
| 46 | C[C@H](c1ccccc1C1(F)CNC1)n1c(=O)oc2cc(S(=O)(=O)Nc3cccc(F)n3)c(F)cc21 [Ex12-6, (R)-5-Fluoro-3-(1-(2-(3-fluoroazetidin-3-yl)phenyl)ethyl)-N-(6-fluoropyridin-2-yl)-2-oxo-2,3-dihydrobenzo[d]oxazole-6-sulfonamide] | 648 |
| 596 | Cc1cccc([C@@H](C)n2c(=O)oc3cc(S(=O)(=O)Nc4cccc(F)n4)c(F)cc32)c1Br [Ex14-4, 3-[(1R)-1-(2-Bromo-3-methylphenyl)ethyl]-5-fluoro-N-(6-fluoropyridin-2-yl)-2-oxo-2,3-dihydro-1,3-benzoxazole-6-sulfonamide] | 27 |
| 535 | C[C@H](c1cccc2c1CNCC2)n1c(=O)oc2cc(S(=O)(=O)Nc3ccc(F)cn3)c(F)cc21.Cl [Ex15-5, (R)-5-Fluoro-N-(5-fluoropyridin-2-yl)-2-oxo-3-(1-(1,2,3,4-tetrahydroisoquinolin-8-yl)ethyl)-2,3-dihydrobenzo[d]oxazole-6-sulfonamide hydrochloride] | 108 |
| 145 | C[C@H](c1ccccc1C1CNC1)n1c(=O)oc2cc(S(=O)(=O)Nc3ccc(F)cn3)c(F)cc21 [Ex15-6, 3-[(1R)-1-(2-azetidin-3-ylphenyl)ethyl]-5-fluoro-N-(5-fluoropyridin-2-yl)-2-oxo-2,3-dihydro-1,3-benzoxazole-6-sulfonamide] | 207 |
| 134 | C[C@H](c1cccc2c1CNCC2)n1c(=O)oc2cc(S(=O)(=O)Nc3cc(Cl)ccn3)c(F)cc21 [Ex16-8, N-(4-Chloropyridin-2-yl)-5-fluoro-2-oxo-3-[(1R)-1-(1,2,3,4-tetrahydroisoquinolin-8-yl)ethyl]-2,3-dihydro-1,3-benzoxazole-6-sulfonamide] | 88 |
| 34 | Cc1cc2c(cc1S(=O)(=O)Nc1cccc(F)n1)oc(=O)n2[C@H](C)c1cccc2c1CNCC2 [Ex17-4, (R)—N-(6-Fluoropyridin-2-yl)-5-methyl-2-oxo-3-(1-(1,2,3,4-tetrahydroisoquinolin-8-yl)ethyl)-2,3-dihydrobenzo[d]oxazole-6-sulfonamide] | 200 |
| 49 | Cc1cc2c(cc1S(=O)(=O)Nc1cccc(F)n1)oc(=O)n2[C@H](C)c1ccccc1CN [Ex17-7, 3-{(1R)-1-[2-(aminomethyl)phenyl]ethyl}-N-(6-fluoropyridin-2-yl)-5-methyl-2-oxo-2,3-dihydro-1,3-benzoxazole-6-sulfonamide] | 147 |
| 6 | Cc1cc2c(cc1S(=O)(=O)Nc1cccc(F)n1)oc(=O)n2[C@H](C)c1ccccc1C1=CCNCC1 [Ex17-8, N-(6-fluoropyridin-2-yl)-5-methyl-2-oxo-3-{(1R)-1-[2-(1,2,3,6-tetrahydropyridin-4-yl)phenyl]ethyl}-2,3-dihydro-1,3-benzoxazole-6-sulfonamide] | 1452 |
| 13 | Cc1cc2c(cc1S(=O)(=O)Nc1cccc(F)n1)oc(=O)n2[C@H](C)c1ccccc1C1CCNCC1 [Ex18-3, (R)—N-(6-Fluoropyridin-2-yl)-5-methyl-2-oxo-3-(1-(2-(piperidin-4-yl)phenyl)ethyl)-2,3-dihydrobenzo[d]oxazole-6-sulfonamide] | 233 |
| 57 | Cc1cc2c(cc1S(=O)(=O)Nc1cccc(F)n1)oc(=O)n2[C@H](C)c1cccc(Br)c1 [Ex18-6, 3-[(1R)-1-(3-bromophenyl)ethyl]-N-(6-fluoropyridin-2-yl)-5-methyl-2-oxo-2,3-dihydro-1,3-benzoxazole-6-sulfonamide] | 30 |
